In ChEMBL document CHEMBL4811309, “Design, synthesis and antiproliferative activity of novel 2,4-diamino-5-methyleneaminopyrimidine derivatives as potential anticancer agents” (Bioorg Med Chem Lett, 2021):
pIC50: −log10 of the molar value.

Experiments:
[1] = test system: HCT-116; assay: Potency index, ratio of 5-FU IC50 to test compound IC50 for antiproliferative activity against human HCT-116 cells by MTT assay; type: functional
[2] = test system: MCF7; assay: Antiproliferative activity against human MCF7 cells assessed as reduction in cell viability by MTT assay; type: functional, cell-based
[3] = test system: HCT-116; assay: Induction of apoptosis in human HCT-116 cells assessed as early apoptotic cells at 10 uM incubated for 24 hrs by Annexin V-FITC and propidium iodide staining based flow cytometry analysis (reference value: 6.19 %); type: functional
[4] = test system: HCT-116; assay: Cell cycle arrest in human HCT-116 cells assessed as accumulation at G2M phase at 2.5 uM measured after 24 hrs by propidium iodide staining based flow cytometry analysis (reference value: 30.39 %); type: functional
[5] = test system: HCT-116; assay: Induction of apoptosis in human HCT-116 cells assessed as viable cells at 10 uM incubated for 24 hrs by Annexin V-FITC and propidium iodide staining based flow cytometry analysis (reference value: 92.9 %); type: functional; settings: read-out: Activity
[6] = test system: HCT-116; assay: Cell cycle arrest in human HCT-116 cells assessed as accumulation at G0/G1 phase at 5 uM measured after 24 hrs by propidium iodide staining based flow cytometry analysis (reference value: 30.60 %); type: functional
[7] = test system: HCT-116; assay: Induction of apoptosis in human HCT-116 cells assessed as viable cells at 5 uM incubated for 24 hrs by Annexin V-FITC and propidium iodide staining based flow cytometry analysis (reference value: 92.9 %); type: functional; settings: read-out: Activity
[8] = test system: HCT-116; assay: Cell cycle arrest in human HCT-116 cells assessed as accumulation at S phase at 10 uM measured after 24 hrs by propidium iodide staining based flow cytometry analysis (reference value: 39%); type: functional
[9] = test system: HCT-116; assay: Cell cycle arrest in human HCT-116 cells assessed as accumulation at S phase at 5 uM measured after 24 hrs by propidium iodide staining based flow cytometry analysis (reference value: 39%); type: functional
[10] = test system: HT-29; assay: Antiproliferative activity against human HT-29 cells assessed as reduction in cell viability by MTT assay; type: functional, cell-based
[11] = test system: HCT-116; assay: Induction of apoptosis in human HCT-116 cells assessed as early apoptotic cells at 2.5 uM incubated for 24 hrs by Annexin V-FITC and propidium iodide staining based flow cytometry analysis (reference value: 6.19 %); type: functional
[12] = test system: HCT-116; assay: Cell cycle arrest in human HCT-116 cells assessed as accumulation at G0/G1 phase at 2.5 uM measured after 24 hrs by propidium iodide staining based flow cytometry analysis (reference value: 30.60 %); type: functional
[13] = test system: HCT-116; assay: Cell cycle arrest in human HCT-116 cells assessed as accumulation at S phase at 2.5 uM measured after 24 hrs by propidium iodide staining based flow cytometry analysis (reference value: 39%); type: functional
[14] = test system: HCT-116; assay: Induction of apoptosis in human HCT-116 cells assessed as necrotic cells at 2.5 uM incubated for 24 hrs by Annexin V-FITC and propidium iodide staining based flow cytometry analysis (reference value: 0.019 %); type: functional
[15] = test system: HCT-116; assay: Induction of apoptosis in human HCT-116 cells assessed as necrotic cells at 5 uM incubated for 24 hrs by Annexin V-FITC and propidium iodide staining based flow cytometry analysis (reference value: 0.019 %); type: functional
[16] = test system: HCT-116; assay: Induction of apoptosis in human HCT-116 cells assessed as necrotic cells at 10 uM incubated for 24 hrs by Annexin V-FITC and propidium iodide staining based flow cytometry analysis (reference value: 0.019 %); type: functional
[17] = test system: HCT-116; assay: Antiproliferative activity against human HCT-116 cells assessed as reduction in cell viability by MTT assay; type: functional, cell-based
[18] = test system: HCT-116; assay: Induction of apoptosis in human HCT-116 cells assessed as early apoptotic cells at 5 uM incubated for 24 hrs by Annexin V-FITC and propidium iodide staining based flow cytometry analysis (reference value: 6.19 %); type: functional
[19] = test system: HCT-116; assay: Induction of apoptosis in human HCT-116 cells assessed as viable cells at 2.5 uM incubated for 24 hrs by Annexin V-FITC and propidium iodide staining based flow cytometry analysis (reference value: 92.9 %); type: functional; settings: read-out: Activity
[20] = test system: HeLa; assay: Antiproliferative activity against human HeLa cells assessed as reduction in cell viability by MTT assay; type: functional, cell-based
[21] = test system: HCT-116; assay: Induction of apoptosis in human HCT-116 cells assessed as late apoptotic cells at 10 uM incubated for 24 hrs by annexin V-FITC and propidium iodide staining based flow cytometry analysis (reference value: 0.899 %); type: functional
[22] = test system: MCF7; assay: Potency index, ratio of 5-FU IC50 to test compound IC50 for antiproliferative activity against human MCF7 cells by MTT assay; type: functional
[23] = test system: HeLa; assay: Potency index, ratio of 5-FU IC50 to test compound IC50 for antiproliferative activity against human HeLa cells by MTT assay; type: functional
[24] = test system: HCT-116; assay: Induction of apoptosis in human HCT-116 cells assessed as late apoptotic cells at 5 uM incubated for 24 hrs by Annexin V-FITC and propidium iodide staining based flow cytometry analysis (reference value: 0.899 %); type: functional
[25] = test system: HCT-116; assay: Cell cycle arrest in human HCT-116 cells assessed as accumulation at G0/G1 phase at 10 uM measured after 24 hrs by propidium iodide staining based flow cytometry analysis (reference value: 30.60 %); type: functional
[26] = test system: HCT-116; assay: Cell cycle arrest in human HCT-116 cells assessed as accumulation at G2M phase at 10 uM measured after 24 hrs by propidium iodide staining based flow cytometry analysis (reference value: 30.39 %); type: functional
[27] = test system: HCT-116; assay: Cell cycle arrest in human HCT-116 cells assessed as accumulation at G2M phase at 5 uM measured after 24 hrs by propidium iodide staining based flow cytometry analysis (reference value: 30.39 %); type: functional
[28] = test system: HT-29; assay: Potency index, ratio of 5-FU IC50 to test compound IC50 for antiproliferative activity against human HT-29 cells by MTT assay; type: functional
[29] = test system: HCT-116; assay: Induction of apoptosis in human HCT-116 cells assessed as late apoptotic cells at 2.5 uM incubated for 24 hrs by Annexin V-FITC and propidium iodide staining based flow cytometry analysis (reference value: 0.899 %); type: functional

Q: Which “Ratio IC50” value [1] does the source give for `CCOC(=O)/C=N/c1cnc(Nc2ccc(N3CCOCC3)cc2)nc1NC1CCCC1` here?
A: 4.9

Q: And the pIC50 [2]?
A: 5.05

Q: What about the Activity [3] of the same molecule?
A: 28%

Q: And the Activity [4]?
A: 27.6%

Q: What about the viability at 10 µM [5] of the same molecule?
A: 44.5%

Q: What about the Activity [6] of the same molecule?
A: 36.46%

Q: What about the viability at 5 µM [7] of the same molecule?
A: 63.5%

Q: And the Activity [8]?
A: 28.47%

Q: And the Activity [9]?
A: 30.52%

Q: What about the pIC50 [10] of the same molecule?
A: 5.25

Q: And the Activity [11]?
A: 10.6%

Q: What about the Activity [12] of the same molecule?
A: 34.63%

Q: And the Activity [13]?
A: 37.77%

Q: And the Activity [14]?
A: 0.195%

Q: And the Activity [15]?
A: 0.62%

Q: What about the Activity [16] of the same molecule?
A: 3.09%

Q: What about the pIC50 [17] of the same molecule?
A: 5.31

Q: What about the Activity [18] of the same molecule?
A: 24.2%

Q: What about the viability at 2.5 µM [19] of the same molecule?
A: 80.3%

Q: And the pIC50 [20]?
A: 4.85

Q: And the Activity [21]?
A: 24.4%

Q: What about the Ratio IC50 [22] of the same molecule?
A: 2.1

Q: What about the Ratio IC50 [23] of the same molecule?
A: 3

Q: What about the Activity [24] of the same molecule?
A: 11.7%

Q: What about the Activity [25] of the same molecule?
A: 41.55%

Q: And the Activity [26]?
A: 29.98%

Q: What about the Activity [27] of the same molecule?
A: 33.02%

Q: And the “Ratio IC50” value [28]?
A: 2.9

Q: What about the Activity [29] of the same molecule?
A: 8.86%
